This is an account of results in patent US10377741B2, “Substituted heteroaryl aldehyde compounds and methods for their use in increasing tissue oxygenation” (Global Blood Therapeutics, Inc., priority 2011, dated 2019).

Test [1] has as its target T1, purified Hemoglobin S (HbS) (Homo sapiens, UniProt P68871+P69905, E7V).
T1 construct: HbS was purified by a modified procedure; from tissue; host or cells: blood of homozygous sickle cell patients (CHORI); for the polymerization assay purified by the CRO VIRUSYS
Description: Modulation of hemoglobin oxygen affinity: oxygen equilibrium curves (HEMOX) in purified HbS. The class given is biochemical, human (homozygous sickle cell patients). The conditions noted are these: compound at 30 μM; 25 μM purified HbS, 45 min at 37° C. Summed up:
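HbS from homozygous sickle cell patient blood, 25 μM in HEMOX buffer pH 7.4, incubated 45 min at 37° C with compound (30 μM unless noted). Air-saturated then deoxygenated with N2; p50 from Hill fit; delta p50% = (control p50 − treated p50)/control p50 × 100.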

The target of a further test is T2, purified HBS (Homo sapiens, UniProt P68871+P69905, E7V).
T2 construct: HbS was purified by a modified procedure; from tissue; host or cells: blood of homozygous sickle cell patients (CHORI); for the polymerization assay purified by the CRO VIRUSYS
The experiment in a line: Polymerization assay (delay time of HbS polymerization). It counts as biochemical, human (homozygous sickle cell patients). The conditions noted are these: percent delay (% DT) vs HBS alone; 50 μM purified HBS, 1.8 M potassium phosphate pH 7.4. Here is the method:
Polymerization assays are carried out in vitro using purified HBS exchanged into 1.8 M potassium phosphate buffer at pH 7.4. Using a slightly modified protocol (Antonini and Brunori, 1971), HbS is purified by the CRO VIRUSYS, from blood obtained from homozygous sickle cell patients through the Hemoglobinopathy Center at Children's Hospital Oakland Research Institute (CHORI) with Institutional Review Board approval. Compounds are prepared in 100% DMSO and a desired amount is added to 50 μM of purified HBS at a final DMSO concentration of 0.3%. Final potassium phosphate concentration is adjusted to 1.8 M using a combination of 2.5 M potassium phosphate stock solution and water at pH 7.4. The reaction mixture is incubated for an hour at 37° C. and then transferred into a 24-well plate for deoxygenation in a glove box containing 99.5% nitrogen and 0.5% oxygen. The 24-well plate is not covered and incubated at 4° C. on a plate cooler inside the glove box for one and a half hours. Fifty μL of the reaction mixture is transferred into a 96-well plate and the absorbance at 700 nm is measured every minute for one hour at 37° C. in a plate reader located inside the glove box. A plot of the absorbance against time is fitted using a Boltzman sigmoidal fit and the delay time (from zero to time at half Vmax) is measured. To compare and rank compounds, delay times are expressed as percent delay (% DT), which is defined as the difference in delay times for HBS/compound and HBS alone multiplied by 100 and divided by the delay time for HBS alone.
Compounds listed below have been tested in the polymerization assay. Activity ranges are defined by the number of dagger (†) symbols indicated. † denotes activity ≥40% but ≤80%; †† denotes activity >80% but ≤120%; ††† denotes activity >120% but ≤140%; †††† denotes activity >160%.

In the next test the target is T3, HbS/A (Homo sapiens, UniProt P68871+P69905, E7V).
T3 construct: A mixture of HbS/A was purified from blood; from tissue; host or cells: blood of homozygous sickle cell patients (CHORI)
The experiment in a line: R/T assay (relaxed-to-tense transition under deoxygenated conditions). The class given is biochemical, human (homozygous sickle cell patients). The conditions noted are these: 3 μM HbS/A, % R remaining vs no treatment. As to the method: A relaxed-to-tense transition assay (“R/T assay”) was used to determine the ability of substituted benzaldehyde compounds to maintain the high-oxygen affinity relaxed (R) state of hemoglobin under deoxygenated conditions. This ability can be expressed as a “delta R” value (i.e., the change in the time-period of the R state after hemoglobin is treated with a compound, as compared to the period without treatment with the compound). Delta R is the % R to remaining after the compounds treatment compared with no treatment (e.g. if R % without treatment is 8% while with treatment with a target compound is 48% R at 30 μM, then % R is 40% for that compound.
A mixture of HbS/A was purified from blood obtained from homozygous sickle cell patients though the Hemoglobinopathy Center at Children's Hospital Oakland Research Institute (CHORI) with Institutional Review Board approval. HbS/A (at a final concentration of 3 μM) was incubated for 1 hr at 37° C. in presence or absence of compounds in […] potassium phosphate buffer, pH=7.4 and 30 μM 2, 3 diphosphoglycerate (DPG) in 96 well plates in a final volume of 160 μl. Compounds were added at different concentrations (3 μM to 100 μM final concentrations). Plates were covered with a Mylar film. After incubation was completed the Mylar cover was removed and the plates were placed in a Spectrostar Nano plate reader previously heated at 37° C. Five minutes later, N2 (flow rate=20 L/min) was flowed through the spectrophotometer. Spectroscopic measurements (300 nm to 700 nm) were taken every 5 min for 2 hours. Data analysis was performed by using linear regression from the data retrieved for all wavelengths.
Table 4 below lists the delta R values where + indicates a delta R of between 0 and 30, ++ indicates a delta R of between 30 and 50, and +++ indicates a delta R of 50 or greater. Unless noted otherwise, the compounds in Table 2 were tested at 30 μM.

Another test concerns whole blood. The experiment in a line: Whole blood assay: oxygen equilibrium curves of whole blood. To be noted: compound at 1000 μM; hematocrit 20%, 1 hour at 37° C. It counts as cell-based, human (homozygous sickle cell patients). As to the method:
Oxygen Equilibrium Curves (OEC) of whole blood before and after treatment with different concentrations of substituted benzaldehyde compounds were performed as follows using a HEMOX analyzer (TCS Scientific, New Hope, Pa.). Blood samples from homozygous sickle cell patients were obtained though the Hemoglobinopathy Center at Children's Hospital Oakland Research Institute (CHORI) with Institutional Review Board approval. The hematocrit was adjusted to 20% using autologous plasma and the blood samples were incubated for 1 hour at 37° C. in absence or presence of compounds. 100 μl of these samples were added to 5 mL of Hemox buffer (30 mM TES, 130 mM NaCl, 5 mM KCl, pH=7.4) at 37° C. and then transferred to the Hemox sample chamber. The samples were saturated with oxygen by flushing with compressed air for 10 minutes. The samples were then flushed with pure nitrogen and the respective absorbances of oxy- and deoxy-Hb are recorded as a function of the solution pO2. The oxygen equilibrium data were then fitted to the Hill Model to obtain values for p50. The deoxygenation curves for both whole blood alone (control) and whole blood in the presence of the compound were collected with the TCS software.
Table 5 below lists the delta p50% values where + indicates a delta p50% of between 0 and 29, ++ indicates a delta p50% of between 30 and 50, and +++ indicates a delta p50% of 50 or greater. Unless noted otherwise, the compounds in Table 2 were tested at 1000 μM.

In the case of `CC(C)n1nccc1-c1ncccc1COc1cncc(O)c1C=O` [Compound 186, 3-hydroxy-5-((2-(1-isopropyl-1H-pyrazol-5-yl)pyridin-3-yl)methoxy)isonicotinaldehyde], in test [1], the “delta p50%” value is “+++ (a delta p50% of 50 or greater)”. Further, on purified HBS, the “% delta Delay” value was “†††† (activity >160%)”. Further, at HbS/A (compound at 30 μM), the “delta R” value is given as “+++ (a delta R of 50 or greater)”. In addition, in the test on whole blood, the “delta p50% Values for Whole Blood Assay” value was “+++ (a delta p50% of 50 or greater)”.
For the molecule `COc1cncc(OCc2cccnc2-c2ccnn2C(C)C)c1C=O` [Compound 188, 3-((2-(1-isopropyl-1H-pyrazol-5-yl)pyridin-3-yl)methoxy)-5-methoxyisonicotinaldehyde], the “delta p50%” value in test [1] is on record as “+++ (a delta p50% of 50 or greater)”. For the same molecule, on purified HBS, the “% delta Delay” value is on record as “††† (activity >120% but ≤140%)”. Also, in the test with whole blood, the “delta p50% Values for Whole Blood Assay” value was “+++ (a delta p50% of 50 or greater)”.
As for `COc1cc(C=O)c(OCc2cccnc2-c2ncnn2C(C)C)cn1` [Compound 189, 5-((2-(2-isopropyl-2H-1,2,4-triazol-3-yl)pyridin-3-yl)methoxy)-2-methoxyisonicotinaldehyde], in test [1], the “delta p50%” value is “++ (a delta p50% of between 30 and 50)”. The “% delta Delay” value on purified HBS is on record as “††† (activity >120% but ≤140%)”. Also, in the test on whole blood, the “delta p50% Values for Whole Blood Assay” value is reported as “+++ (a delta p50% of 50 or greater)”.
Regarding `COc1cc(C=O)c(OCc2cncc(C(=O)O)c2)cn1` [Compound 79, 5-((4-formyl-6-methoxypyridin-3-yloxy)methyl)nicotinic acid], in test [1], the “delta p50%” value was “++ (a delta p50% of between 30 and 50)”. Further, on HbS/A (compound at 9 μM), the “delta R” value is “++ (a delta R of between 30 and 50)”. Besides, in the test on whole blood, the “delta p50% Values for Whole Blood Assay” value was “+ (a delta p50% of between 0 and 29)”.
As for `COc1cc(C=O)c(OCc2cnc3ccccc3c2)cn1` [Compound 80, 2-methoxy-5-(quinolin-3-ylmethoxy)isonicotinaldehyde], in test [1], the “delta p50%” value was “++ (a delta p50% of between 30 and 50)”. In addition, the “delta R” value at HbS/A (compound at 9 μM) is given as “+++ (a delta R of 50 or greater)”. Further, the “delta p50% Values for Whole Blood Assay” value with whole blood is “+ (a delta p50% of between 0 and 29)”.
Consider `COC(=O)CCn1nccc1-c1ncccc1COc1cnc(OC)cc1C=O` [Compound 200, methyl 3-(5-(3-(((4-formyl-6-methoxypyridin-3-yl)oxy)methyl)pyridin-2-yl)-1H-pyrazol-1-yl)propanoate], for which, in test [1], the “delta p50%” value was “++ (a delta p50% of between 30 and 50)”. Further, at HbS/A (compound at 9 μM), the “delta R” value is “+ (a delta R of between 0 and 30)”. Besides, the “delta p50% Values for Whole Blood Assay” value in the test on whole blood is reported as “+++ (a delta p50% of 50 or greater)”.
Turning to `COc1cc(C=O)c(OCc2c(-c3ccn[nH]3)ncc3ccccc23)cn1` [Compound 133, 5-((3-(1H-pyrazol-5-yl)isoquinolin-4-yl)methoxy)-2-methoxyisonicotinaldehyde], in test [1], the “delta p50%” value was “++ (a delta p50% of between 30 and 50)”. Further, at HbS/A (compound at 9 μM), the “delta R” value was “++ (a delta R of between 30 and 50)”. In the test with whole blood, the “delta p50% Values for Whole Blood Assay” value is “+ (a delta p50% of between 0 and 29)”.
With `COc1cc(C=O)c(OCc2cccn3c(C)nnc23)cn1` [Compound 58, 2-methoxy-5-((3-methyl-[1,2,4]triazolo[4,3-a]pyridin-8-yl)methoxy)isonicotinaldehyde], in test [1], the “delta p50%” value is “++ (a delta p50% of between 30 and 50)”. Also, the “delta R” value on HbS/A (compound at 9 μM) is “+ (a delta R of between 0 and 30)”. Moreover, the “delta p50% Values for Whole Blood Assay” value in the test with whole blood was “+ (a delta p50% of between 0 and 29)”.
Take `COc1cc(C=O)c(OCc2cccnc2-c2c(C)cnn2C(C)C)cn1` [Compound 190, 5-((2-(1-isopropyl-4-methyl-1H-pyrazol-5-yl)pyridin-3-yl)methoxy)-2-methoxyisonicotinaldehyde]: the “delta p50%” value in test [1] was “+++ (a delta p50% of 50 or greater)”. The “% delta Delay” value on purified HBS is on record as “††† (activity >120% but ≤140%)”. Further, the “delta p50% Values for Whole Blood Assay” value in the test with whole blood was “+++ (a delta p50% of 50 or greater)”.
Take `COc1cc(C=O)c(OCc2cccc(C(=O)O)c2)cn1` [Compound 203, 3-(((4-formyl-6-methoxypyridin-3-yl)oxy)methyl)benzoic acid]: the “delta p50%” value in test [1] is recorded as “+++ (a delta p50% of 50 or greater)”. In addition, the “% delta Delay” value on purified HBS was “†† (activity >80% but ≤120%)”. Also, the “delta R” value at HbS/A (compound at 9 μM) was “+ (a delta R of between 0 and 30)”.
For `COc1cc(C=O)c(OCc2cccnc2C(C)(C)O)cn1` [Compound 183, 5-((2-(2-hydroxypropan-2-yl)pyridin-3-yl)methoxy)-2-methoxyisonicotinaldehyde], in test [1], the “delta p50%” value is on record as “+++ (a delta p50% of 50 or greater)”. Also, the “delta R” value on HbS/A (compound at 30 μM) was “++ (a delta R of between 30 and 50)”. In addition, in the test on whole blood, the “delta p50% Values for Whole Blood Assay” value was “+++ (a delta p50% of 50 or greater)”.
Regarding `Cc1ccc(OCc2nccc3ccccc23)c(C=O)n1` [Compound 93, 3-(isoquinolin-1-ylmethoxy)-6-methylpicolinaldehyde], the “delta p50%” value in test [1] was “++ (a delta p50% of between 30 and 50)”. Further, the “delta R” value on HbS/A (compound at 9 μM) is “+ (a delta R of between 0 and 30)”. Moreover, the “delta p50% Values for Whole Blood Assay” value in the test on whole blood is “+ (a delta p50% of between 0 and 29)”.
Regarding `Cc1ccc(OCc2cccc3cnn(C)c23)c(C=O)n1` [Compound 92, 6-methyl-3-((1-methyl-1H-indazol-7-yl)methoxy)picolinaldehyde], the “delta p50%” value in test [1] is “++ (a delta p50% of between 30 and 50)”. On HbS/A (compound at 9 μM), the “delta R” value is “+ (a delta R of between 0 and 30)”. For the same molecule, the “delta p50% Values for Whole Blood Assay” value in the test with whole blood was “+ (a delta p50% of between 0 and 29)”.
`COc1cc(C=O)c(OCc2cccnc2-c2ccnn2CCO)cn1` [Compound 191, 5-((2-(1-(2-hydroxyethyl)-1H-pyrazol-5-yl)pyridin-3-yl)methoxy)-2-methoxyisonicotinaldehyde]: in test [1], the “delta p50%” value is “+++ (a delta p50% of 50 or greater)”. For the same molecule, on HbS/A (compound at 9 μM), the “delta R” value is “+ (a delta R of between 0 and 30)”. In the test with whole blood, the “delta p50% Values for Whole Blood Assay” value is listed as “+++ (a delta p50% of 50 or greater)”.
